Peptide text beside a SMILES is read from it.
Tested on: dendritic cells
Assay: Oligolysine induced toxicity to dendritic cells
Assay type: cell-based
Settings: 1.5 μg/mL K20, different time intervals
Description: FIGS. 15A and 15B show oligolysine induced toxicity to dendritic cells. FIG. 15A: Freshly harvested dendritic cells were incubated with 1.5 μg/mL K20 for different time intervals. […] FIG. 15B: Confocal image of dendritic cells incubated with oligolysine (K20) peptide-coated, cy5 labeled DNA nanostructure.

Which “appearance of dendritic cells under a microscope” value does the source give for NCCCC[C@H](NC(=O)[C@H](CCCCN)NC(=O)[C@H](CCCCN)NC(=O)[C@H](CCCCN)NC(=O)[C@H](CCCCN)NC(=O)[C@H](CCCCN)NC(=O)[C@H](CCCCN)NC(=O)[C@H](CCCCN)NC(=O)[C@H](CCCCN)NC(=O)[C@H](CCCCN)NC(=O)[C@H](CCCCN)NC(=O)[C@H](CCCCN)NC(=O)[C@H](CCCCN)NC(=O)[C@H](CCCCN)NC(=O)[C@H](CCCCN)NC(=O)[C@H](CCCCN)NC(=O)[C@H](CCCCN)NC(=O)[C@H](CCCCN)NC(=O)[C@H](CCCCN)NC(=O)[C@@H](N)CCCCN)C(=O)O [K20] (H-KKKKKKKKKKKKKKKKKKKK-OH) here?
The value was “cells appeared healthy”.

— patent US20160271268A1, “NUCLEIC ACID NANOSTRUCTURES FOR IN VIVO AGENT DELIVERY” (DANA-FARBER CANCER INSTITUTE, INC., priority 2013, published 2016)
